Test results: patent publication US10766869B2, “Triazoles for the treatment of demyelinating dieases” (Vertex Pharmaceuticals Incorporated, priority 2015, dated 2020)
Like-named read-outs stand apart in the source and are kept apart here.

Tested on: primary rat mixed cortical cells
Test: In vitro myelination assay (MBP positive myelin strands, fold myelin pixels above background)
Format: cell-based
Details: for fold induction at 1 µM / fold induction at 10 µM: Rattus norvegicus; for fold induction at 10 µM: 10.0 μM compound
From the text: In Vitro Myelination Assay
Compounds were screened for their ability to induce myelination using a primary rat mixed cortical cell culture assay, which contains neurons, oligodendrocyte precursor cells, oligodendrocytes, astrocytes and microglia. The assay quantifies myelination by measuring myelin basic protein (MBP) immunofluorescent positive myelin strands from images taken using a Cellomics Array Scan (model Arrayscan VTI HCS Reader) or a Molecular Devices Image Xpress (model IXM XL) high content imager. The myelin strands were quantitated using a custom created myelin detection software program. Test compounds were dissolved in DMSO to make a 10 mM initial stock solution. Dilutions were made in myelination medium to obtain the final solutions for the assay and were tested in primary rat mixed cortical cells at selected doses.
Primary rat mixed cortical cells were prepared from harvested cerebral cortices from postnatal day 1 (P1) rats (P1 Rat CD® IGS pups) were purchased from Charles River) in Complete Dissociation Medium, wherein the meninges were removed and the cortical tissue chopped with a razor blade into ˜1 mm^3 pieces. Tissue from 1-3 pups was collected and placed into 15 ml conical tubes in a total volume of 5 ml of Complete Dissociation Medium. Activated papain (3 ml) was added to each 15 ml conical tube and tissue was incubated at 37° C. for 30 minutes. After the 30 minute incubation, DNase (Sigma D4527; 75 μl of a 1 mg/ml stock) was added to each tube, followed by mechanical trituration using a 2 ml serological pipette and autopipettor to gently dissociate the tissue. Following trituration, larger tissue pieces were allowed to settle by gravity, and the supernatant containing dissociated cells was transferred to a 50 ml conical tube with 4 ml of trypsin inhibitor. Cells were pelleted by centrifugation, resuspended in myelination medium and filtered through a 40 μm filter. Cells were then seeded in 96-well plates (BD Biosciences, Black, PDL-coated, Cat. No. 356640) at 87,500-95,000 cells/well in a final volume of 200 μl of Myelination Medium in the presence or absence of compound and cultured for 14 days in a humidified 37° C. incubator with 5% CO2. Half the medium was removed and replaced with fresh medium containing 1× compound on days 6 and 10. Using a Biotek automatic plate washer (model Biomek® FXP Laboratory Automation Workstation), cells were fixed with 4% paraformaldehyde on day 14, washed with PBS and blocked in 5% normal goat serum (Vector Laboratories, S-1000) in 0.1% PBS-TritonX-100 (PBST) for 1 hour. Cells were stained with 1:500 anti-MBP (Covance, cat # SMI99) primary antibody in 1% normal goat serum in 0.1% PBST for 2 hours at room temperature followed by 2 washes with PBST. A final incubation in secondary antibody (1:1000, Invitrogen, Alexa-488 anti-mouse IgG2b) and 1:10,000 Hoechst dye in 1% normal goat serum in 0.1% PBST was performed for 2 hours at room temperature. Plates were washed with PBS and then scanned on a Cellomics Array Scan using a 10× objective (25 images per well) or the Image Xpress using a 10× objective (9 image per well). Images were analyzed using Vertex myelin detection software (described below) to quantify total MBP myelin pixels per well. Fold myelin pixels above background at two concentrations (1.0 μM and 10.0 μM) relative to baseline of no added compound are reported below in Table 4. Standard deviation for each compound concentration was calculated using all replicates and using a standard deviation formula commonly used in the art.
One of skill in the art would recognize that for this type of primary neuronal mixed cell assay variability between different assay runs is to be expected even though the protocol is the same for each assay run. For instance, variability may be due to small differences in cell viability, cell density, age of the animals, etc.
Vertex Myelin Detection Software: […]

[1] = 1.0 μM compound, relative to baseline of no added compound, read-out: Fold myelin pixels above background
[2] = relative to baseline of no added compound, read-out: Fold myelin pixels above background
[3] = 1.0 μM compound, relative to baseline of no added compound, read-out: Fold myelin pixels above background, 1.0 μM
[4] = relative to baseline of no added compound, read-out: Fold myelin pixels above background, 10.0 μM
[5] = 1.0 μM compound, read-out: Fold myelin pixels above background relative to baseline of no added compound
[6] = read-out: Fold myelin pixels above background relative to baseline of no added compound

SMILES: Cc1cc(Nc2ncn(-c3cccc(C#N)c3)n2)cc(N2CCN(C3COC3)CC2)c1 [Compound 759, 3-[3-[3-methyl-5-[4-(oxetan-3-yl)piperazin-1-yl]anilino]-1,2,4-triazol-1-yl]benzonitrile]
- fold induction at 1 µM [1]: 1 to 10
- fold induction at 10 µM [2]: 1 to 10

SMILES: Cc1cc(Nc2ncn(-c3cc(F)cc(F)c3)n2)cc(N2CCN(C3CC3)CC2)c1 [Compound 482, N-[3-(4-cyclopropylpiperazin-1-yl)-5-methyl-phenyl]-1-(3,5-difluorophenyl)-1,2,4-triazol-3-amine]
- fold induction at 1 µM [1]: 10 to 100
- fold induction at 10 µM [2]: 100 to 1000

SMILES: COCC1CCN(c2cc(Cl)cc(Nc3ncn(-c4ccccc4)n3)c2)CC1 [Compound 246, N-[3-chloro-5-[4-(methoxymethyl)-1-piperidyl]phenyl]-1-phenyl-1,2,4-triazol-3-amine]
- fold induction at 1 µM [3]: 10 to 100
- fold induction at 10 µM [4]: 100 to 1000

SMILES: Cc1cc(Nc2ncn(-c3cc(F)cc(F)c3)n2)cc(N2CCN3CC(F)(F)C[C@H]3C2)c1 [Compound 831, N-[3-[(8aS)-7,7-difluoro-13,4,6,8,8a-hexahydropyrrolo[1,2-a]pyrazin-2-yl]-5-methyl-phenyl]-1-(3,5-difluorophenyl)-1,2,4-triazol-3-amine]
- fold induction at 1 µM [5]: 10 to 100
- fold induction at 10 µM [6]: 10 to 100

SMILES: Cc1cc(Nc2ncn(-c3cc(F)cc(F)c3)n2)cc(OCC2CCOC2)c1 (stereo not shown) [Compound 648, 1-(3,5-difluorophenyl)-N-[3-methyl-5-(tetrahydrofuran-3-ylmethoxy)phenyl]-1,2,4-triazol-3-amine]
- fold induction at 1 µM [1]: 10 to 100
- fold induction at 10 µM [2]: 10 to 100

SMILES: Cc1cc(Nc2ncn(-c3cc(F)cc(F)c3)n2)cc(N2CC(N3CCOC4CC43)C2)c1 (stereo not shown) [Compound 652, 1-(3,5-difluorophenyl)-N-[3-methyl-5-[3-(5-oxa-2-azabicyclo[4.1.0]heptan-2-yl)azetidin-1-yl]phenyl]-1,2,4-triazol-3-amine]
- fold induction at 1 µM [1]: 10 to 100
- fold induction at 10 µM [2]: ≤ 1

SMILES: Cc1cc(Nc2ncn(-c3cc(F)cc(F)c3)n2)cc(N2CCNC(C(F)(F)F)C2)c1 (stereo not shown) [Compound 552, 1-(3,5-difluorophenyl)-N-[3-methyl-5-[3-(trifluoromethyl)piperazin-1-yl]phenyl]-1,2,4-triazol-3-amine]
- fold induction at 1 µM [1]: 10 to 100
- fold induction at 10 µM [2]: 10 to 100

SMILES: Cc1cc(Nc2ncn(-c3cc(F)cc(F)c3)n2)cc(N2CCN(C3CCCC3O)CC2)c1 (stereo not shown) [Compound 875, 2-[4-[3-[[1-(3,5-difluorophenyl)-1,2,4-triazol-3-yl]amino]-5-methyl-phenyl]piperazin-1-yl]cyclopentanol]
- fold induction at 1 µM [5]: 10 to 100
- fold induction at 10 µM [6]: ≤ 1

SMILES: Cc1cc(Nc2ncn(-c3ccccc3)n2)c(F)c(OC2CCOC2)c1 (single isomer, unassigned) [Compound 1002, N-(2-fluoro-5-methyl-3-tetrahydrofuran-3-yloxy-phenyl)-1-phenyl-1,2,4-triazol-3-amine]
- Fold myelin pixels above background relative to baseline of no added compound (1.0 μM compound): +++ (>100 to 1000x)
- fold induction at 10 µM [6]: 10 to 100

SMILES: Cc1cc(Nc2ncn(-c3cc(F)cc(F)c3)n2)cc(N2CCC(N3CCCC3)C2)c1 (stereo not shown) [Compound 1060, 1-(3,5-difluorophenyl)-N-[3-methyl-5-(3-pyrrolidin-1-ylpyrrolidin-1-yl)phenyl]-1,2,4-triazol-3-amine]
- fold induction at 1 µM [5]: 1 to 10
- fold induction at 10 µM [6]: ≤ 1

SMILES: Fc1cc(F)cc(-n2cnc(Nc3cc(N4CC(N5CCOCC5)C4)cc(N4CC(N5CCOCC5)C4)c3)n2)c1 [Compound 868, N-[3,5-bis(3-morpholinoazetidin-1-yl)phenyl]-1-(3,5-difluorophenyl)-1,2,4-triazol-3-amine]
- fold induction at 1 µM [5]: 1 to 10
- fold induction at 10 µM [6]: 1 to 10

SMILES: Fc1cc(F)cc(-n2cnc(Nc3cc(C4CC4)nc(N4CCOCC4)c3)n2)c1 [Compound 405, 2-cyclopropyl-N-[1-(3,5-difluorophenyl)-1,2,4-triazol-3-yl]-6-morpholino-pyridin-4-amine]
- fold induction at 1 µM [1]: 100 to 1000
- fold induction at 10 µM [2]: 1000 to 10000

SMILES: Cc1cc(Nc2ncn(-c3cc(F)ccc3F)n2)cc(N2CCNCC2)c1 [Compound 558, 1-(2,5-difluorophenyl)-N-(3-methyl-5-piperazin-1-yl-phenyl)-1,2,4-triazol-3-amine]
- fold induction at 1 µM [1]: 10 to 100
- fold induction at 10 µM [2]: ≤ 1

SMILES: Cc1cc(CN2CCN(C3COC3)CC2)cc(Nc2ncn(-c3cnccn3)n2)c1 [Compound 583, N-[3-methyl-5-[[4-(oxetan-3-yl)piperazin-1-yl]methyl]phenyl]-1-pyrazin-2-yl-1,2,4-triazol-3-amine]
- fold induction at 1 µM [1]: 10 to 100
- fold induction at 10 µM [2]: 10 to 100

SMILES: Cc1cc(Nc2ncn(-c3ccc(F)cc3)n2)cc(N2CCCC2)c1 [Compound 269, 1-(4-fluorophenyl)-N-(3-methyl-5-pyrrolidin-1-yl-phenyl)-1,2,4-triazol-3-amine]
- fold induction at 1 µM [3]: 1 to 10
- fold induction at 10 µM [4]: 10 to 100

SMILES: CCc1cc(Nc2ncn(-c3ccc(F)c(F)c3)n2)cc(N2CCN(C3(C)COC3)CC2)c1 [Compound 577, 1-(3,4-difluorophenyl)-N-[3-ethyl-5-[4-(3-methyloxetan-3-yl)piperazin-1-yl]phenyl]-1,2,4-triazol-3-amine]
- fold induction at 1 µM [1]: 10 to 100
- fold induction at 10 µM [2]: 10 to 100

SMILES: CCc1cc(Nc2ncn(-c3ccc(F)c(C)c3)n2)cc(N2CCN(C3COC3)CC2)c1 [Compound 829, N-[3-ethyl-5-[4-(oxetan-3-yl)piperazin-1-yl]phenyl]-1-(4-fluoro-3-methyl-phenyl)-1,2,4-triazol-3-amine]
- fold induction at 1 µM [5]: 1 to 10
- fold induction at 10 µM [6]: ≤ 1

SMILES: COCCCN1CCCN(c2cc(C)cc(Nc3ncn(-c4cc(F)cc(F)c4)n3)c2)CC1 [Compound 896, 1-(3,5-difluorophenyl)-N-[3-[4-(3-methoxypropyl)-1,4-diazepan-1-yl]-5-methyl-phenyl]-1,2,4-triazol-3-amine]
- fold induction at 1 µM [5]: 1 to 10
- fold induction at 10 µM [6]: 1 to 10

SMILES: CN1CCN(c2cc(Nc3ncn(-c4ccncn4)n3)cc(C(F)(F)F)c2)CC1 [Compound 96, N-[3-(4-methylpiperazin-1-yl)-5-(trifluoromethyl)phenyl]-1-pyrimidin-4-yl-1,2,4-triazol-3-amine]
- fold induction at 1 µM [3]: 100 to 1000
- fold induction at 10 µM [4]: 100 to 1000

SMILES: Cc1cc(Nc2ncn(-c3cccc(C(F)(F)F)c3)n2)cc(N2CCC(N3CCOCC3)CC2)c1 [Compound 854, N-[3-methyl-5-(4-morpholino-1-piperidyl)phenyl]-1-[3-(trifluoromethyl)phenyl]-1,2,4-triazol-3-amine]
- fold induction at 1 µM [5]: 100 to 1000
- fold induction at 10 µM [6]: 10 to 100

SMILES: COc1cc(Nc2ncn(-c3cc(F)cc(F)c3)n2)cc(N2CCN(C3COC3)CC2)c1 [Compound 310, 1-(3,5-difluorophenyl)-N-[3-methoxy-5-[4-(oxetan-3-yl)piperazin-1-yl]phenyl]-1,2,4-triazol-3-amine]
- fold induction at 1 µM [3]: 1000 to 10000
- fold induction at 10 µM [4]: 100 to 1000

SMILES: CN1CCN(c2cc(Nc3ncn(-c4ccccc4)n3)cc(C(F)(F)F)c2)CC1 [Compound 486, N-[3-(4-methylpiperazin-1-yl)-5-(trifluoromethyl)phenyl]-1-phenyl-1,2,4-triazol-3-amine]
- fold induction at 1 µM [1]: 100 to 1000
- fold induction at 10 µM [2]: ≤ 1

SMILES: Cc1cc(Nc2ncn(-c3cc(F)cc(N4CCC(CO)C4)c3)n2)cc(N2CCN(C3COC3)CC2)c1 (stereo not shown) [Compound 480, [1-[3-fluoro-5-[3-[3-methyl-5-[4-(oxetan-3-yl)piperazin-1-yl]anilino]-1,2,4-triazol-1-yl]phenyl]pyrrolidin-3-yl]methanol]
- fold induction at 1 µM [1]: 10 to 100
- fold induction at 10 µM [2]: ≤ 1
